Reference: publication PMC11097166, “Imidazole-Derived Alkyl and Aryl Ethers: Synthesis, Characterization, In Vitro Anticancer and Antioxidant Activities, Carbonic Anhydrase I–II Inhibition Properties, and In Silico Studies” (ACS Omega, 2024)

How the values were obtained:
FRAP antioxidant assay = details: trolox standard curve
Protocol: The FRAP method was used to determine the antioxidant power of compounds. This method, which determines the reducing power of compounds, was developed by Benzie and Strain.[48] Fe(III)–TPTZ complex is formed as a result of the reaction of Fe(III) with tripyridyltriazine (TPTZ), and this complex is reduced to the Fe(II)–TPTZ complex with the antioxidant in the environment. The color of this complex is dark blue and gives the maximum absorbance at 593 nm.[48] Incubation is performed for up to 30 min to complete the reaction, and the correct absorbance values were read. The FRAP values of the samples were calculated as “μmol trolox equiv/g sample” with the help of the standard curve obtained using methanol–trolox standard solutions (0; 0.2; 0.4; 0.6; 0.8; and 1.0 μmol/mL) which were used as the positive control.[49] […]

hCA II = hCA II (Homo sapiens, UniProt P00918); assay: CA esterase activity method, hCA II; assay type: biochemical; details: for Effect on hCA II isoenzyme activity: Table S3; for IC50: esterase activity, p-nitrophenyl acetate substrate; on Effect on hCA II isoenzyme activity: key: +: active; -: not effect
Text: (§1) The method used to spectrophotometrically detect the antiepileptic, antiglaucoma, and […] effects of the obtained compounds in vitro is the esterase activity method. This method relies on the esterase activity of CA for the hydrolysis of p-nitrophenyl acetate as a substrate, which is a part of the reaction mechanism involving p-nitrophenol or p-nitrophenolate.

hCA I = hCA I (Homo sapiens, UniProt P00915); assay: CA esterase activity method, hCA I; assay type: biochemical; details: for Effect on hCA I isoenzyme activity: Table S3; for IC50: esterase activity, p-nitrophenyl acetate substrate; on Effect on hCA I isoenzyme activity: key: +: active; -: not effect
Text: as §1

[1] = tested on: HT29 colon cancer cell line; assay: MTT cell viability assay on HT29; assay type: cell-based, human; details: 24 h incubation
Text: (§2) 96-well plates were used for seeding cells. […] All compounds were run in three repetitions.

[2] = tested on: MCF7 human breast adenocarcinoma cell line; assay: MTT cell viability assay on MCF7; assay type: cell-based; details: 24 h incubation
Text: as §2

[3] = tested on: L929 mouse fibroblast cell line; assay: MTT cell viability assay on L929; details: read-out: IC50 L929; 24 h incubation, MTT
Protocol: Human breast adenocarcinoma cell line (MCF7), rat glial tumor cell line (C6), healthy mouse fibroblast cell line (L929), and colon cancer (HT29) cell line were purchased from ATCC (American type culture collection) and studied.
The cytotoxic effects of all compounds by MTT analysis on L929, HT29, MCF7, and C6 cell lines were investigated. 96-well plates were used for seeding cells. Approximately 1 × 10^4 cells were seeded in each well. Cells were allowed to adhere for 24 h, and then the compounds were applied at different concentrations. All compounds were run in three repetitions. Wells with a maximum of 100 μM compounds were incubated for 24 h. Three wells without compounds treated with only DMSO (with total volume of % 0.5) were used as negative controls, and cisplatin was used as a positive control. […] After the MTT interaction, the FRAP wells were emptied, and DMSO solution was placed in them. The formazan crystals formed were dissolved with this solution, and the number of viable cells in each well was determined by color change.

[4] = tested on: C6 rat glial tumor cell line; assay: MTT cell viability assay on C6; assay type: cell-based; details: 24 h incubation
Text: as §2

Chain of hCA I (P00915 whole entry): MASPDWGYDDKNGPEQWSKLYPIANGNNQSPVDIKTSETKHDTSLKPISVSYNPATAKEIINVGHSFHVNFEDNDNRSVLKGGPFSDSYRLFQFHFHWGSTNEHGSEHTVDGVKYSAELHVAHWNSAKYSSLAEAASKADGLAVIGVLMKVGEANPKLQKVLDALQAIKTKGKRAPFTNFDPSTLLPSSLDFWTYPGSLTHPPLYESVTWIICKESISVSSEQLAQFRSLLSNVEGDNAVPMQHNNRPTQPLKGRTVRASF

Molecule	FRAP (FRAP antioxidant assay) [μmol trolox equiv/g]	Effect on hCA II isoenzyme activity (hCA II)	Effect on hCA I isoenzyme activity (hCA I)	IC50 (hCA II) [nM]	IC50 (hCA I) [nM]	further results
CCCOC(Cn1ccnc1)c1ccc(OC)cc1 (stereo not shown) [Compound 14, 1-(2-(4-Methoxyphenyl)-2-propoxyethyl)-1H-imidazole]	0.28 ± 0.01	+	+			
C=CCOC(Cn1ccnc1)c1ccc(OC)cc1 (stereo not shown) [Compound 15, 1-(2-(Allyloxy)-2-(4-methoxyphenyl)ethyl)-1H-imidazole]	0.31 ± 0.03	+	+			
c1ccc(COC(Cn2ccnc2)c2ccccc2)cc1 (stereo not shown) [Compound 16, 1-(2-(Benzyloxy)-2-phenylethyl)-1H-imidazole]	0.41 ± 0.03	+	+			
Clc1ccc(COC(Cn2ccnc2)c2ccccc2)cc1 (stereo not shown) [Compound 17, 1-(2-((4-Chlorobenzyl)oxy)-2-phenylethyl)-1H-imidazole]	0.35 ± 0.07			14.8	13.2	
Cc1ccc(COC(Cn2ccnc2)c2ccccc2)cc1 (stereo not shown) [Compound 18, 1-(2-((4-Methylbenzyl)oxy)-2-phenylethyl)-1H-imidazole]	0.30 ± 0.04	+	+			
Clc1ccc(C(Cn2ccnc2)OCc2ccccc2)cc1 (stereo not shown) [Compound 19, 1-(2-(Benzyloxy)-2-(4-chlorophenyl)ethyl)-1H-imidazole]	0.27 ± 0.01			11.7	15.7	
Clc1ccc(COC(Cn2ccnc2)c2ccc(Cl)cc2)cc1 (stereo not shown) [Compound 20, 1-(2-((4-Chlorobenzyl)oxy)-2-(4-chlorophenyl)ethyl)-1H-imidazole]	0.31 ± 0.06			10.9	4.13	
Cc1ccc(COC(Cn2ccnc2)c2ccc(Cl)cc2)cc1 (stereo not shown) [Compound 21, 1-(2-(4-Chlorophenyl)-2-((4-methylbenzyl)oxy)ethyl)-1H-imidazole]	0.25 ± 0.01			7.9	9.83	
COc1ccc(C(Cn2ccnc2)OCc2ccccc2)cc1 (stereo not shown) [Compound 22, 1-(2-(Benzyloxy)-2-(4-methoxyphenyl)ethyl)-1H-imidazole]	0.40 ± 0.05					
COc1ccc(C(Cn2ccnc2)OCc2ccc(Cl)cc2)cc1 (stereo not shown) [Compound 23, 1-(2-((4-Chlorobenzyl)oxy)-2-(4-methoxyphenyl)ethyl)-1H-imidazole]	0.45 ± 0.04			5.65	7.49	melting point: 104 to 105 °C
COc1ccc(C(Cn2ccnc2)OCc2ccc(C)cc2)cc1 (stereo not shown) [Compound 24, 1-(2-(4-Methoxyphenyl)-2-((4-methylbenzyl)oxy)ethyl)-1H-imidazole]	0.46 ± 0.06			9.66	4.77	
N.N.[Cl][Pt][Cl] [cisplatin, reference compound]						IC50 [1]: 68200 ± 3390 nM; IC50 [2]: 26800 ± 11000 nM; IC50 [3]: 277700 ± 1090 nM; IC50 [4]: 88200 ± 12100 nM
vitamin E [reference compound]	1.00 ± 0.04					
